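Method: 48-hour compound exposure of cells in 96-well plates, five concentrations, linear interpolation of endpoints. TGI marks complete inhibition of growth.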
Assays:
Assay in all cases: NCI anticancer screen, dose series, 48 h
SW-620 colon = system: SW-620 colon
786-0 renal = system: 786-0 renal
HOP-92 NSCLC = system: HOP-92 NSCLC
ACHN renal = system: ACHN renal
OVCAR-3 ovarian = system: OVCAR-3 ovarian
NCI-H522 lung = system: NCI-H522 lung
HL-60(TB) leukemia = system: HL-60(TB) leukemia
UO-31 renal = system: UO-31 renal
M14 melanoma = system: M14 melanoma
MDA-N = system: MDA-N
MDA-MB-231 breast = system: MDA-MB-231 breast
A498 renal = system: A498 renal
COLO 205 colon = system: COLO 205 colon
HS 578T breast = system: HS 578T breast
MDA-MB-435 = system: MDA-MB-435
SK-MEL-28 melanoma = system: SK-MEL-28 melanoma
DU-145 prostate = system: DU-145 prostate
RXF 393 renal = system: RXF 393 renal
NCI-H226 lung = system: NCI-H226 lung
TK-10 renal = system: TK-10 renal
HOP-62 NSCLC = system: HOP-62 NSCLC
K-562 leukemia = system: K-562 leukemia
HCC-2998 colon = system: HCC-2998 colon
MOLT-4 leukemia = system: MOLT-4 leukemia
SNB-19 CNS = system: SNB-19 CNS
BT-549 breast = system: BT-549 breast
HCT-116 colon = system: HCT-116 colon
UACC-62 melanoma = system: UACC-62 melanoma
RPMI-8226 leukemia = system: RPMI-8226 leukemia
CAKI-1 renal = system: CAKI-1 renal
OVCAR-8 ovarian = system: OVCAR-8 ovarian
LOX IMVI melanoma = system: LOX IMVI melanoma
SF-295 CNS = system: SF-295 CNS
U251 CNS = system: U251 CNS
CCRF-CEM leukemia = system: CCRF-CEM leukemia
MCF7 breast = system: MCF7 breast
A549 NSCLC = system: A549 NSCLC
OVCAR-4 ovarian = system: OVCAR-4 ovarian
SK-OV-3 ovarian = system: SK-OV-3 ovarian
NCI-H23 lung = system: NCI-H23 lung
SK-MEL-2 melanoma = system: SK-MEL-2 melanoma
KM12 colon = system: KM12 colon
UACC-257 melanoma = system: UACC-257 melanoma
MALME-3M melanoma = system: MALME-3M melanoma
IGROV1 ovarian = system: IGROV1 ovarian
NCI-H460 lung = system: NCI-H460 lung
SF-268 CNS = system: SF-268 CNS
HCT-15 colon = system: HCT-15 colon
SK-MEL-5 melanoma = system: SK-MEL-5 melanoma
T-47D breast = system: T-47D breast
PC-3 prostate = system: PC-3 prostate
OVCAR-5 ovarian = system: OVCAR-5 ovarian
HT29 colon = system: HT29 colon
SNB-75 CNS = system: SNB-75 CNS
NCI/ADR-RES ovarian = system: NCI/ADR-RES ovarian
SF-539 CNS = system: SF-539 CNS
SN12C renal = system: SN12C renal
SR leukemia = system: SR leukemia

## O=C1C=C(NCCOCCO)C(=O)c2c(O)ccc(O)c21
SW-620 colon
  TGI: 33.1 µM
786-0 renal
  TGI: > 100 µM
HOP-92 NSCLC
  TGI: 51.3 µM
ACHN renal
  TGI: 83 µM
OVCAR-3 ovarian
  TGI: 65.4 µM
NCI-H522 lung
  TGI: 47.1 µM
HL-60(TB) leukemia
  TGI: 40.4 µM
UO-31 renal
  TGI: > 100 µM
M14 melanoma
  TGI: 66.9 µM
MDA-N
  TGI: 31.3 µM
MDA-MB-231 breast
  TGI: > 100 µM
A498 renal
  TGI: > 100 µM
COLO 205 colon
  TGI: 32.7 µM
HS 578T breast
  TGI: > 100 µM
MDA-MB-435
  TGI: 32.6 µM
SK-MEL-28 melanoma
  TGI: > 100 µM
DU-145 prostate
  TGI: > 100 µM
RXF 393 renal
  TGI: > 100 µM
NCI-H226 lung
  TGI: > 100 µM
TK-10 renal
  TGI: > 100 µM
HOP-62 NSCLC
  TGI: > 100 µM
K-562 leukemia
  TGI: 87.4 µM
HCC-2998 colon
  TGI: 43.6 µM
MOLT-4 leukemia
  TGI: 79.7 µM
SNB-19 CNS
  TGI: > 100 µM
BT-549 breast
  TGI: > 100 µM
HCT-116 colon
  TGI: 55 µM
UACC-62 melanoma
  TGI: 28.2 µM
RPMI-8226 leukemia
  TGI: 78 µM
CAKI-1 renal
  TGI: > 100 µM
OVCAR-8 ovarian
  TGI: 86.5 µM
LOX IMVI melanoma
  TGI: 30 µM
SF-295 CNS
  TGI: > 100 µM
U251 CNS
  TGI: 77.9 µM
CCRF-CEM leukemia
  TGI: 76.2 µM
MCF7 breast
  TGI: 40.1 µM
A549 NSCLC
  TGI: 73.6 µM
OVCAR-4 ovarian
  TGI: 33.4 µM
SK-OV-3 ovarian
  TGI: > 100 µM
NCI-H23 lung
  TGI: 47.9 µM
SK-MEL-2 melanoma
  TGI: 51.9 µM
KM12 colon
  TGI: > 100 µM
UACC-257 melanoma
  TGI: 38.4 µM
MALME-3M melanoma
  TGI: 24.2 µM
IGROV1 ovarian
  TGI: > 100 µM
NCI-H460 lung
  TGI: > 100 µM
SF-268 CNS
  TGI: > 100 µM
HCT-15 colon
  TGI: 57.1 µM
SK-MEL-5 melanoma
  TGI: 25.9 µM
T-47D breast
  TGI: 59.8 µM
PC-3 prostate
  TGI: > 100 µM
OVCAR-5 ovarian
  TGI: > 100 µM
HT29 colon
  TGI: 42.2 µM
SNB-75 CNS
  TGI: > 100 µM
NCI/ADR-RES ovarian
  TGI: 65.7 µM
SF-539 CNS
  TGI: 54.6 µM

## COC(=O)NC(C(F)(F)F)(C(F)(F)F)P1(=O)OCCCO1
SW-620 colon
  TGI: 82.4 µM
786-0 renal
  TGI: > 100 µM
HOP-92 NSCLC
  TGI: > 100 µM
ACHN renal
  TGI: 54.2 µM
OVCAR-3 ovarian
  TGI: > 100 µM
NCI-H522 lung
  TGI: 34 µM
HL-60(TB) leukemia
  TGI: 51.1 µM
UO-31 renal
  TGI: 65.6 µM
M14 melanoma
  TGI: > 100 µM
MDA-N
  TGI: 70.3 µM
MDA-MB-231 breast
  TGI: 62.9 µM
A498 renal
  TGI: 38 µM
COLO 205 colon
  TGI: 69.9 µM
HS 578T breast
  TGI: > 100 µM
MDA-MB-435
  TGI: 46.1 µM
SK-MEL-28 melanoma
  TGI: > 100 µM
DU-145 prostate
  TGI: > 100 µM
RXF 393 renal
  TGI: 15 µM
NCI-H226 lung
  TGI: 98.7 µM
TK-10 renal
  TGI: 97.6 µM
HOP-62 NSCLC
  TGI: 58.6 µM
K-562 leukemia
  TGI: > 100 µM
SN12C renal
  TGI: > 100 µM
MOLT-4 leukemia
  TGI: > 100 µM
SNB-19 CNS
  TGI: 78.7 µM
BT-549 breast
  TGI: 68.3 µM
HCT-116 colon
  TGI: 62 µM
UACC-62 melanoma
  TGI: 33.2 µM
RPMI-8226 leukemia
  TGI: 48.5 µM
OVCAR-8 ovarian
  TGI: 83.3 µM
LOX IMVI melanoma
  TGI: 58.4 µM
SF-295 CNS
  TGI: 55.3 µM
U251 CNS
  TGI: 29.8 µM
CCRF-CEM leukemia
  TGI: > 100 µM
MCF7 breast
  TGI: > 100 µM
A549 NSCLC
  TGI: > 100 µM
OVCAR-4 ovarian
  TGI: > 100 µM
SK-OV-3 ovarian
  TGI: 55.7 µM
NCI-H23 lung
  TGI: 50.9 µM
KM12 colon
  TGI: 64.7 µM
IGROV1 ovarian
  TGI: 68.8 µM
NCI-H460 lung
  TGI: 84.6 µM
SF-268 CNS
  TGI: 73.8 µM
HCT-15 colon
  TGI: 59 µM
SK-MEL-5 melanoma
  TGI: 40.6 µM
SR leukemia
  TGI: 69.5 µM
T-47D breast
  TGI: 84.3 µM
PC-3 prostate
  TGI: > 100 µM
OVCAR-5 ovarian
  TGI: 82.1 µM
HT29 colon
  TGI: 63.9 µM
SNB-75 CNS
  TGI: > 100 µM
NCI/ADR-RES ovarian
  TGI: > 100 µM
SF-539 CNS
  TGI: 43 µM
